Results as given in patent publication US7645882B2, “Inhibitor of protein modification products formation” (priority 2003, dated 2010).

System: pentosidine
Assay: Pentosidine production inhibiting effect with BSA and arabinose
Assay type: biochemical
Conditions: BSA and arabinose instead of plasma
Description: Fresh heparinized plasma samples were obtained after informed consent from hemodialysis patients prior to the dialysis session, and filtrated and sterilized. To the plasma (450 μL), there was added the solution of TM-2002 in dimethylsurphoxide (50 μL) (final concentration: 0.8, 2.0, 5.0 mM) incubated at 37° C. for one week. Then, the amount of pentosidine was measured.
Measurement of the amount of pentosidine was made as follows: to each incubated sample (50 μL) was added an equal volume of 10% trichloroacetic acid, followed by centrifugation at 5000 g for 5 minutes; after removal of the supernatant, the pellet was washed by 5% trichloroacetic acid (300 μL); the pellet was dried under reduced pressure and then subjected to hydrolysis in 6N HCl solution (100 μL) at 110° C. under nitrogen atmosphere for 16 hours; to the hydrolysate, 5N NaOH (100 μL) and 0.5 M phosphate buffer (pH 7.4) (200 μL) were added, followed by filtration through a porefilter with a pore size of 0.5 μm and dilution with PBS. The concentration of free pentosidine was determined by reversed-phase HPLC using a fluorescence detector (Miyata, T. et al.: Proc. Natl. Acad. Sci. USA, Vol. 93, p. 2353-2358, 1996). The effluent was monitored at 335/385 nm of excitation/emission wavelength. Synthetic pentosidine was used as the standard. The detection limit of pentosidine was 0.1 pmol/mg protein.
The plasma from patients was substituted to BSA and arabinose, and the pentosidine production inhibiting effect of another compounds (I) or (II) was measured in the same manner as [Test Examination 1]. Therein, “-” means that the examination was not carried out.

| SMILES | Pentosidine production rate in 5 mM of medicament (%) |
| --- | --- |
| CC1=NN(c2ccccc2)C(=O)C1CCC(=O)O (centres unmarked) [compound 7, 3-(3-methyl-5-oxo-1-penyl-4,5-dihydro-1H-pyrazol-4-yl)-propionic acid] | 64.64% |
| CC1=NN(c2ccccc2)C(=O)C1C(c1ccccc1)c1c(C)nn(-c2ccccc2)c1O (centres unmarked) [compound 9, 4-[(5-hydroxy-3-methyl-1-phenyl-1H-pyrazol-4-yl)-phenyl-methyl]-5-methyl-2-phenyl-2,4-dihydro-pyrazol-3-one] | 7.52% |
| CC(=O)NC1C(=O)N(c2ccccc2)N=C1C (centres unmarked) [compound 12, N-(3-methyl-5-oxo-1-phenyl-4,5-dihydro-1H-pyrazol-4-yl)-acetamide] | 54.21% |
| CC1=NN(c2cccc([N+](=O)[O-])c2)C(=O)C1Sc1nnnn1-c1ccccc1 (centres unmarked) [compound 13, 5-methyl-2-(3-nitro-phenyl)-4-(1-phenyl-1H-tetrazol-5-yl-sulfanil)-2,4-dihydro-pyrazol-3-one] | 74.66% |
| O=C(NC1=NN(c2ccccc2)C(=O)C1Sc1nnnn1-c1ccccc1)c1ccccc1 (centres unmarked) [compound 14, N-[5-oxo-1-phenyl-4-(1-phenyl-1H-tetrazol-5-yl-sulfanil)-4,5-dihydro-1H-pyrazol-3-yl]-benzamide] | 61.27% |
| CC1=NN(c2ccccc2)C(=O)C1C1C(=O)N(c2ccccc2)N=C1C (centres unmarked) [compound 17, 5,5′-dimethyl-2,2′-diphenyl-2,4,2′,4′-tetrahydro-[4,4′]-bipyrazol-3,3′-dione] | 60.96% |
| COc1ccc(-c2csc(SC3C(=O)N(c4ccccc4)N=C3C)n2)cc1 (centres unmarked) [compound 19, 4-[4-(4-methoxy-phenyl)-thiazole-2-yl-sulfanil]-5-methyl-2-phenyl-2,4-dihydro-pyrazol-3-one] | 40.19% |
| CCCC1=NN(c2ccccc2)C(=O)C1CC(=O)c1ccccc1 (centres unmarked) [compound 20, 4-(2-oxo-2-phenyl-ethyl)-2-phenyl-5-propyl-2,4-dihydro-pyrazol-3-one] | 83.12% |
| CC1=NN(c2ccccc2)C(=O)C1Sc1nc(-c2ccc(C)cc2)cs1 (centres unmarked) [compound 21, 5-methyl-2-phenyl-4-(4-p-toluyl-thiazole-2-yl-sulfanil)-2,4-dihydro-pyrazol-3-one] | 42.07% |
| CC1=NN(c2ccc(F)cc2)C(=O)C1C(c1ccccc1O)c1c(C)nn(-c2ccc(F)cc2)c1O (centres unmarked) [compound 22, 2-(4-fluoro-phenyl)-4-[[1-(4-fluoro-phenyl)-5-hydroxy-3-methyl-1H-pyrazol-4-yl]-(2-hydroxy-phenyl)-methyl]-5-methyl-2,4-dihydro-pyrazol-3-one] | 2.9% |
| CC1=NN(c2ccccc2)C(=O)C1(O)S(=O)(=O)[O-].[Na+] (centres unmarked) [compound 25, sodium; 4-hydroxy-3-methyl-5-oxo-1-phenyl-4,5-dihydro-1H-pyrazol-4-sulfonate] | 38.80% |
| CC1=NN(c2ccccc2)C(=O)C1(N1CCOCC1)N1CCOCC1 [compound 26, 5-methyl-4,4-di-morpholin-4-yl-2-phenyl-2,4-dihydro-pyrazol-3-one] | 50.68% |
| O=C(NC1=NN(c2ccccc2)C(=O)C1(O)S(=O)(=O)[O-])c1ccccc1.[Na+] (centres unmarked) [compound 27, sodium 3-benzoylamino-4-hydroxy-5-oxo-1-phenyl-4,5-dihydro-1H-pyrazol-4-sulfonate] | 2.83% |
| CC1=NN(c2ccccc2)C(=O)C12Sc1ccccc1C2=O (centres unmarked) [compound 28, 3-methyl-1-phenyl-5-oxo-4-spiro-(3-oxo-2,3-dihydro-benzo[b]thiophen-2-yl)-4,5-dihydro-1H-pyrazol] | 22.83% |
| CC1=NN(c2ccccc2)C(=O)C12C(c1ccccc1)C21C(=O)N(c2ccccc2)N=C1C (centres unmarked) [compound 30, 4,10-dimethyl-2,8,11-triphenyl-2,3,8,9-tetraza-dispiro[4.0.4.1]undeca-3,9-diene-1,7-dione] | 62.43% |
| CCOc1cc(/C=C2/C(=O)N(c3ccccc3Cl)N=C2C)ccc1O [compound 31, 2-(2-chloro-phenyl)-4-(3-ethoxy-4-hydroxy-benzylidene)-5-methyl-2,4-dihydro-pyrazol-3-one] | 15.57% |

| SMILES | Pentosidine production rate in 5 mM of medicament (%) |
| --- | --- |
| CC1=NN(c2ccccc2Cl)C(=O)/C1=C/c1ccc(N(C)C)cc1 [compound 32, 2-(2-chloro-phenyl)-4-(4-dimethylamino-benzylidene)-5-methyl-2,4-dihydro-pyrazol-3-one] | 8.7% |
| CC1=NN(c2cccc(C(F)(F)F)c2)C(=O)/C1=C/C=C/c1ccccc1 [compound 33, 5-methyl-4-(3-phenyl-allylidene)-2-(3-trifluoromethyl-phenyl)-2,4-dihydro-pyrazol-3-one] | 80.08% |
| CC1=NN(c2cccc(F)c2)C(=O)/C1=C\c1ccc(N(C)C)cc1 [compound 35, 4-(4-dimethylamino-benzylidene)-2-(3-fluoro-phenyl)-5-methyl-2,4-dihydro-pyrazol-3-one] | 76.31% |
| CC1=NN(c2cccc(C(=O)O)c2)C(=O)/C1=C\c1ccc(N2CCC(Cl)=N2)cc1 [compound 36, 3-{4-[4-(3-chloro-4,5-dihydro-pyrazol-1-yl)-benzylidene]-3-methyl-5-oxo-4,5-dihydro-pyrazol-1-yl}-benzoic acid] | 26.37% |
| O=C(O)c1cccc(N2N=C(c3ccccc3)/C(=C/c3ccccc3O)C2=O)c1 [compound 37, 3-[4-(2-hydroxy-benzylidene)-5-oxo-3-phenyl-4,5-dihydro-pyrazol-1-yl]-benzoic acid] | 0.02% |
| CC1=NN(c2cccc(Cl)c2)C(=O)/C1=C/c1cc2ccccc2[nH]c1=O [compound 38, 3-[1-(3-chloro-phenyl)-3-methyl-5-oxo-1,5-dihydro-pyrazol-4-ylidene-methyl]-1H-quinolin-2-one] | 84.95% |
| COC(=O)c1cccc(-c2ccc(/C=C3\C(=O)N(c4ccc(S(N)(=O)=O)cc4)N=C3C)o2)c1 [compound 39, 3-{5-[3-methyl-5-oxo-1-(4-sulfamoyl-phenyl)-1,5-dihydro-pyrazol-4-ylidene-methyl]-furan-2-yl}-benzoic acid-methyl ester] | 16.87% |
| COC(=O)c1ccc(N2N=C(C)/C(=C/c3ccc4c(c3)OCO4)C2=O)cc1 [compound 40, 4-(4-benzo[1,3]dioxol-5-ylmethylene-3-methyl-5-oxo-4,5-dihydro-pyrazol-1-yl)-benzoic acid-methyl ester] | 32.37% |
| COC(=O)c1ccc(N2N=C(C)/C(=C/c3ccc(-c4ccc(S(N)(=O)=O)cc4)o3)C2=O)cc1 [compound 41, 4-{3-methyl-5-oxo-4-[5-(4-sulfamoyl-phenyl)-furan-2-yl-methylene]-4,5-dihydro-pyrazol-1-yl}-benzoic acid-methyl ester] | 37.81% |
| CC1=NN(c2ccc(Cl)cc2)C(=O)/C1=C/c1ccc(O)cc1O [compound 42, 2-(4-chloro-phenyl)-4-(2,4-dihydroxy-benzylidene)-5-methyl-2,4-dihydro-pyrazol-3-one] | 68.32% |
| CC1=NN(c2ccc(Cl)cc2)C(=O)/C1=C/c1cccc(O)c1 [compound 43, 2-(4-chloro-phenyl)-4-(3-hydroxy-benzylidene)-5-methyl-2,4-dihydropyrazol-3-one] | 3.00% |
| CC1=NN(c2ccc(C)cc2)C(=O)/C1=C/c1ccc(O)c(O)c1 [compound 44, 4-(3,4-dihydroxy-benzylidene)-5-methyl-2-p-toluyl-2,4-dihydro-pyrazol-3-one] | 66.19% |
| CC(=O)c1ccc(N2N=C(C)/C(=C3\C(=O)Nc4ccccc43)C2=O)cc1 [compound 45, 3-[1-(4-acetyl-phenyl)-3-methyl-5-oxo-1,5-dihydro-pyrazol-4-ylidene]-1,3-dihydro-indol-2-one] | 19.22% |
| CC1=NN(c2ccc(F)cc2)C(=O)/C1=C\c1c(C)nn(-c2ccccc2C)c1O [compound 46, 2-(4-fluoro-phenyl)-4-(5-hydroxy-3-methyl-1-o-toluyl-1H-pyrazol-4-yl-methylene)-5-methyl-2,4-dihydro-pyrazol-3-one] | 15.69% |
| COc1cc(/C=C2\C(=O)N(c3ccc(Cl)cc3)N=C2C(F)(F)F)ccc1O [compound 47, 2-(4-chloro-phenyl)-4-(4-hydroxy-3-methoxy-benzylidene)-5-trifluoromethyl-2,4-dihydro-pyrazol-3-one] | 28.86% |
| CCc1ccc(N2N=C(C)/C(=C\c3ccc(O)cc3)C2=O)cc1 [compound 48, 2-(4-ethyl-phenyl)-4-(4-hydroxy-benzylidene)-5-methyl-2,4-dihydro-pyrazol-3-one] | 0.02% |
